Data as given in paper PMC9960827, “Cloning and Characterization of Trypanosoma congolense and T. vivax Nucleoside Transporters Reveal the Potential of P1-Type Carriers for the Discovery of Broad-Spectrum Nucleoside-Based Therapeutics against Animal African Trypanosomiasis” (International Journal of Molecular Sciences, 2023).
Values joined by “and” are separate entries in the source; they are usually repeats but may differ in a detail not shown here. Equal entries are not always repeated. Where two headings read alike, the source gives them in different places. Marks after values point to notes of the source that are not given here.

Assays:
[1] = test system: L. mexicana Cas9; assay: Resazurin drug sensitivity assay, LmexCas9; assay type: cell-based, Leishmania mexicana; conditions: Leishmania mexicana, read-out: LmexCas9 EC50
Description: (§1) EC50 values were determined by plotting to an equation for a sigmoid curve with variable slope (GraphPad Prism 8). All values were the average of at least three independent determinations on different days.

[2] = test system: T. vivax; parameters: method as in Mabille et al. [69]; conditions: added for comparison only; ref Mabille et al. [69]; cited from earlier work
[3] = biological target: T. b. brucei P1 (TbP1/NT2); conditions: cited from earlier work
[4] = test system: T. congolense IL3000; assay: Alamar Blue (resazurin) assay, T. congolense IL3000; assay type: cell-based, Trypanosoma congolense; conditions: Trypanosoma congolense, read-out: T. congolense IL3000 EC50
Description: as §1

[5] = biological target: T. congolense adenosine transporter; assay: [3H]-adenosine uptake and its inhibition in T. congolense IL3000 bloodstream forms; assay type: cell-based, Trypanosoma congolense; conditions: 0.05 µM [3H]-adenosine, 30 s; IC50 converted to Ki; read-out: Ki on the transport of [3H]-adenosine
Description: (§2) Uptake assays using radiolabeled trypanocides and/or nucleosides were carried out as described previously. Briefly, parasite cultures were harvested, washed twice in assay buffer (33 mM HEPES, 98 mM NaCl, 4.6 mM KCl, 0.5 mM CaCl2, 0.07 mM MgSO4, 5.8 mM NaH3PO4, 0.03 mM MgCl2, 23 mM NaHCO3, 14 mM D-glucose, pH 7.3), then resuspended and adjusted to a density of 1 × 10^8 cells/mL in assay buffer. The radiolabeled permeant in the presence or absence of different concentrations of potential inhibitors reconstituted in 100 μL assay buffer was deposited on top of 250 μL oil mix in microcentrifuge tubes; 1 × 10^7 parasites in 100 μL assay buffer were added to the tube and incubated for a pre-determined interval. The reaction was stopped by the addition of 1 mL of a high concentration of ice-cold unlabeled substrate in assay buffer (‘stop solution’) and centrifugation, or by immediate centrifugation at […] as appropriate. The microcentrifuge tubes were flash-frozen, and the bottom of each tube containing the cell pellet was cut off and transferred to a scintillation vial. Cell pellets were lysed in 2% SDS, after which scintillation fluid (Scintlogic U, Lablogic) was added, followed by overnight incubation in the dark. Scintillation was measured in a 300SL (Hidex) scintillation counter (Hidex). All the assays were conducted in triplicate and analysis was carried out using Microsoft Excel and GraphPad Prism. All kinetic parameters were obtained on at least 3 separate occasions.
(§3) The dose-dependent uptake assay allowed for the affinity of nucleoside analogs to different nucleoside transporters to be determined by measuring the extent to which the analogs compete with and inhibit the uptake of radiolabel adenosine. This allowed for the determination of biochemical parameters such as Km and Vmax through the application of the Michaelis–Menten equation V0 = Vmax([substrate]/([substrate] + Km)). The 50% Inhibitory Concentration (IC50) of the purines and pyrimidines and their analogs was determined from non-linear regression to sigmoid curves with variable slope (Prism 8), and the IC50 of the inhibitor and the Km of the labeled permeant were then used to calculate the inhibition constant (Ki) of the analogs through the Cheng–Prusoff equation: Ki = IC50/(1 + (L/Km)), where L denotes the radiolabel concentration. The calculated Ki was in turn used to determine the Gibbs free energy (ΔG^0) of the inhibitor–transporter interaction using the equation: ΔG^0 = -RTln(Ki), where R represents the gas constant and T symbolizes the absolute temperature in Kelvin [104].

[6] = test system: T. brucei TbAT1-KO; conditions: cited from earlier work
[7] = test system: T. congolense 6C3; assay: microbe, parasite or virus in culture; assay type: cell-based, Trypanosoma congolense; conditions: for EC50: Trypanosoma congolense, diminazene resistant strain, resazurin, read-out: T. congolense 6C3 EC50; for T. congolense 6C3 RF: resistance factor = EC50 (test strain)/EC50(control strain)
Description: as §1

[8] = test system: TcoAT1; assay type: cell-based, Trypanosoma congolense
Source text: (§4) The information for the T. congolense adenosine transporter (TcoAT1) and four putative T. vivax nucleoside transporters was obtained in the TritrypDB (tritrypdb.org/tritrypdb) genome database. Primers were designed to flank each gene upstream of the 5′ end (forward) and downstream of the 3′ end (reverse) as described (primer sequences in Supplementary Table S2). Following amplification from the genomic DNA of T. congolense or T. vivax, DNA for each extracted gene was ligated into the pNUS-HcN expression vector doubly digested with NdeI using the NEBuilder kit according to the manufacturer’s instructions (New England Biolabs). Construct was transformed into competent E. coli cells, and ligation was confirmed by restriction enzyme digestion of isolated plasmid DNA followed by Sanger sequencing (Source BioScience, Nottingham, UK). Confirmed plasmids were then transfected into L. mexicana cell line in which both NT1 and NT2 were doubly knocked out (SUPKO) and derived from L. mexicana Cas9 [64] as described. Clones grown in medium containing 50 μg/mL neomycin (G418) were collected for further confirmation by PCR with genomic DNA using a forward primer of the transporter gene and a reverse primer of the plasmid.
as §2, §3

[9] = test system: L. mexicana SUPKO+TvxNT3; assay: microbe, parasite or virus in culture; assay type: cell-based, Leishmania mexicana; conditions: for EC50: Leishmania mexicana, read-out: SUPKO+TvxNT3 EC50
Description: as §1

[10] = test system: L. mexicana SUPKO; assay: microbe, parasite or virus in culture; assay type: cell-based, Leishmania mexicana; conditions: for EC50: Leishmania mexicana, read-out: SUPKO EC50, resazurin, promastigotes; for SUPKO RF (Cas9): Resistance Factor = EC50(SUPKO)/EC50(Cas9)
Description: as §1

[11] = test system: L. mexicana SUPKO+TcoAT1; assay: microbe, parasite or virus in culture; assay type: cell-based, Leishmania mexicana; conditions: for EC50: Leishmania mexicana, read-out: SUPKO+TcoAT1 EC50
Description: as §1

[12] = biological target: TvxNT3 (Trypanosoma vivax, UniProt F9WV62); assay: cell-based; assay type: cell-based; conditions: difference in ΔG0 relative to the parent purine (adenosine or inosine)
Source text: as §4, §2, §3

[13] = test system: TcoAT1; assay: Uptake of [3H]-pentamidine and [3H]-diminazene in SUPKO+TcoAT1 versus SUPKO; assay type: cell-based, Trypanosoma congolense; conditions: 25 nM [3H]-pentamidine or 50 nM [3H]-diminazene, SUPKO+TcoAT1 vs SUPKO
Description: as §2, with “All the assays were conducted in triplicate and analysis was carried out using Microsoft Excel and GraphPad Prism. All kinetic parameters were obtained on at least 3 separate occasions.” left out

[14] = test system: T.b.b. B48; assay: Alamar Blue (resazurin) assay, T. b. brucei B48; assay type: cell-based, Trypanosoma brucei brucei; conditions: Trypanosoma brucei, read-out: T.b.b. B48 EC50
Description: as §1

[15] = test system: T. equiperdum; assay: Alamar Blue (resazurin) assay, T. equiperdum; assay type: cell-based, Trypanosoma equiperdum; conditions: Trypanosoma equiperdum; resazurin; read-out: T. equiperdum EC50
Description: as §1

[16] = test system: human embryonic kidney (HEK) cells; assay: Resazurin toxicity assay on human embryonic kidney cells; assay type: cell-based
Description: as §1

[17] = as above; assay type: cell-based; conditions: human
Description: as §1

[18] = test system: T. evansi; assay: Alamar Blue (resazurin) assay, T. evansi; assay type: cell-based, Trypanosoma evansi; conditions: Trypanosoma evansi; resazurin; read-out: T. evansi EC50
Description: as §1

[19] = Resistance Factor relative to SUPKO

Chain of TvxNT3 (F9WV62 entry or part of it): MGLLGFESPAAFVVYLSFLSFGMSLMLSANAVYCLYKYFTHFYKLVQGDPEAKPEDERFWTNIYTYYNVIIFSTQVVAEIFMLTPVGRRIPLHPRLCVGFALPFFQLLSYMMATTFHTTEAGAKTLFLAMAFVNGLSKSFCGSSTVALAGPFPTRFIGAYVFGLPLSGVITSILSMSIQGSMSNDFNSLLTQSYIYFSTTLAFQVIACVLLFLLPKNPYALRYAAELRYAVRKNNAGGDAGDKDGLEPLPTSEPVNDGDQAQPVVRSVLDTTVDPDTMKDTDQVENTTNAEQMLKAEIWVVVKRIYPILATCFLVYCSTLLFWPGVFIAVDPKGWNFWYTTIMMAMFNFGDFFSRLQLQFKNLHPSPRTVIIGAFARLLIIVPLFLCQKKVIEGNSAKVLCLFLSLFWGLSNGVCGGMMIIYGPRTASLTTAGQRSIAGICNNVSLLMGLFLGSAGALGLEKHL

Row | Compound | EC50 [1] [nM] | EC50 [2] [nM] | EC50 ([4]; BSF, resazurin) [nM] | EC50 [7] [nM] | T. congolense 6C3 RF [7] | EC50 [9] [nM] | EC50 [10] [nM] | SUPKO RF (Cas9) [10] | EC50 [11] [nM] | EC50 [14] [nM] | other results
1 | Nc1ncnc2c1ncn2[C@@H]1O[C@H](CO)C[C@H]1O [Cordycepin, 3′-deoxyadenosine] | 91600 ± 12900 | 120 ± 20 | 2460 ± 420 | 2160 ± 440 | 0.88 | > 100000 | > 100000 | >1.09 | > 100000 | – | Ki ([3]; T. b. brucei bloodstream forms, read-out: Tbb P1 Ki): 210000 ± 48000 nM; Tbb P1 ΔG0 [3]: -5.02 kcal/mol; Ki [5]: 12000 ± 2000 nM; resistance of the TbAT1-KO strain [6]: 17 fold; fold difference in affinity compared to adenosine [8]: 10 fold; Ki ([8]; 0.05 µM [3H]-adenosine, 10 s, IC50 converted to Ki, read-out: Ki on the transport of [3H]-adenosine): 4590 nM and 4600 nM; ΔG0 ([8]; Gibbs free energy of binding, from Km or Ki): -7.29 kcal/mol; δ(ΔG0) ([8]; loss of Gibbs free energy of binding relative to the parent nucleoside): 1.42 kcal/mol; δ(ΔG0) [12]: -1.07 kcal/mol
2 | N=C(N)c1ccc(/N=N/Nc2ccc(C(=N)N)cc2)cc1 [Diminazene, reference compound] | – | – | – | 1320 ± 430 | 5.7 ^a | – | – | 1.27 | – | 340 ± 130 | EC50 [4]: 230 ± 40 nM; effect of the expression of TcoAT1 on the uptake of the trypanocide [13]: no effect
3 | Nc1ncnc2c1c(F)cn2[C@@H]1O[C@H](CO)[C@@H](O)[C@H]1O [FH3167, 7-deaza-7-fluoroadenosine] | 96 ± 9 | 38 ± 6 | 450 ± 620 | 480 ± 100 | 1.06 | 57200 ± 6800 | 63400 ± 5500 | 660 | 7500 ± 900 | 160 ± 30 | EC50 [15]: 32 ± 7 nM; SI T. congolense ([16]; selectivity index = EC50 (HEK cells)/EC50 (T. congolense)): 1.1; SI T. equiperdum ([16]; selectivity index = EC50 (HEK cells)/EC50 (T. equiperdum)): 15; SI T. evansi ([16]; selectivity index = EC50 (HEK cells)/EC50 (T. evansi)): 2.7; EC50 [17]: 490 ± 50 nM; SUPKO+TvxNT3 RF (SUPKO) [9, 19]: 1.1; SUPKO+TcoAT1 RF (SUPKO) [11, 19]: 8.48; EC50 [18]: 180 ± 23 nM
